Assay results: patent US20110195987A1, “TREATMENT WITH CHOLINERGIC AGONISTS” (priority 2009, published 2011)

Columns and labels:
Assay type in all cases: in vivo, human
[1] = Case studies: vaginal dryness / vaginal secretions in female patients
Description: (§1) A second patient two, suffering from painful intercourse and vaginal dryness and discomfort, also used oral pilocarpine at a dose of 2.5-5 mg BID. […] A trial of intra-vaginal administration of pilocarpine, starting at a dose of 1/4 of a 5 mg tablet daily at night was tried. […] The patient had previously tried HRT without much improvement. The improvement in vaginal symptoms was stunning.
(§2) A third patient has had problems with vaginal dryness and painful intercourse for several years. Oral hormone replacement therapy consisting of both estradiol and PROMETRIUM (progesterone), had provided no relief for their vaginal symptoms. They were started on oral Evoxac, 30 mg daily. After a week, they administered 30 mg cevimeline mixed with a small amount of yogurt directly in the vagina nightly. They have reported improvement in both vaginal dryness and pain on intercourse and continues on the treatment.
They were started on oral pilocarpine, 5 mg twice a day. Within a few days, they noticed marked improvement in their symptoms, i.e., a reduction in vaginal dryness and symptoms associated with urinary tract infections. […]
(§3) Their symptoms consisted of vaginal and pelvic pain as well as signs of urinary tract infections with trace positive cultures. Prior attempts to treat urinary tract infections with antibiotics often failed. They began a regimen of oral pilocarpine, 5 mg twice a day, for a week followed by 5 mg pilocarpine administered directly to the vagina nightly for a week. Subsequently, the amount of pilocarpine was increased to 10 mg directly administered to the vagina nightly. […] Additionally, they reported a reduction in pelvic pain and vaginal dryness a few days after commencing intravaginal administration of 10 mg pilocarpine.

[2] = Case studies: symptoms of interstitial cystitis (IC) in female patients
Description: (§4) In the case of a patient who has been diagnosed with IC for more than 8 years, no prior treatment has helped the episodes of pain, urinary frequency, and systemic symptoms mentioned above. […] However, the onset of breast cancer and its treatment have precluded the use of Hormone Replacement Therapy (HRT). Because of vaginal dryness, a trial of Evoxac (cevimeline HCl) capsules, 30 mg daily, by oral administration was tried. […] This lasted for about 2 months. The Evoxac was started on or about Apr. 5, 2009. […] Metoprolol at a dose of 12.5-25 mg/day was started to slow the heart rate. […] The Evoxac was restarted at a dose of 15 mg daily. A trial of intra-vaginal medication at a dose of 30 mg per vagina (powder was taken out of the capsule and instilled using a gel cap) was also tried.
as §3

[3] = Case studies: side effects of oral versus intra-vaginal administration
Description: as §4, §1
(§5) […] They began and tolerated oral pilocarpine, 5 mg twice a day.

[4] = Case studies: painful intercourse in female patients
Description: as §1, §2
(§6) They began a week long regimen of oral pilocarpine, 5 mg twice a day, followed by 10 mg placed directly in the vagina nightly. They reported improvement in symptoms associated with urinary tract infections, vaginal dryness and painful intercourse. […] Formulation of the pilocarpine in a manner suitable for intravaginal administration will improve delivery of the pilocarpine and the efficacy of treatment.

[5] = Case studies: urinary tract infections in female patients
Description: […] […] They were started on oral pilocarpine, 5 mg twice a day. Within a few days, they noticed marked improvement in their symptoms, i.e., a reduction in vaginal dryness and symptoms associated with urinary tract infections.
as §5, §6

[6] = Case study: vaginal yeast infections in patient; details: Case Study 5, patient one; oral 5 mg twice a day, approximately 8 months
Description: as §5

[7] = Case Study 3, patient seven, oral 30 mg daily for a week, then 30 mg in yogurt directly in the vagina nightly
[8] = Case Study 1, patient three, 30 mg daily, oral
[9] = Case Study 2, patient two, intra-vaginal up to 7.5 mg daily
[10] = Case Study 2, patient two, oral 2.5-5 mg BID
[11] = Case Study 4, patient five, oral 5 mg twice a day, within a few days
[12] = Case Study 5, patient one, oral 5 mg twice a day, approximately 8 months
[13] = Case Study 6, patient six, oral 5 mg twice a day for a week, then 10 mg in the vagina nightly
[14] = Case Study 7, patient four, 10 mg intravaginal nightly, a few days after commencing

CC1OC2(CS1)CN1CCC2CC1 (stereo not drawn) [Evoxac, 2-methyspiro (1,3-oxathiolane-5,3) quinuclidine]
vaginal dryness ([1]; Case Study 1, patient three, capsules 30 mg daily, oral): improvement in vaginal dryness | vaginal dryness [1, 7]: improvement | symptoms of IC ([2]; Case Study 1, patient three, 15 mg daily oral, compared with prior treatment incl. Elmiron 100 mg TID four months): improved the symptoms of IC better than any prior treatment | duration of remission of IC symptoms [2, 8]: about 2 months | symptoms of IC [2, 8]: remitted | symptoms of IC ([2]; Case Study 1, patient three, 30 mg intra-vaginal (powder in gel cap), compared with prior treatment incl. Elmiron 100 mg TID four months): improved the symptoms of IC better than any prior treatment | symptoms of IC after discontinuing the medication ([2]; Case Study 1, patient three, stopped for a few weeks): symptoms of IC return within a week | side effects ([3]; Case Study 1, patient three, 30 mg intra-vaginal): completely eliminated side-effects | side effects ([3]; Case Study 1, patient three, oral administration, 30 mg daily): nausea and rapid heart rate | pain on intercourse [4, 7]: improvement

CC(=O)[C@H]1CC[C@H]2[C@@H]3CCC4=CC(=O)CC[C@]4(C)[C@H]3CC[C@]12C [PROMETRIUM, progesterone]
vaginal symptoms (vaginal dryness and painful intercourse) ([1]; Case Study 3, patient seven, oral hormone replacement therapy, estradiol and PROMETRIUM together): no relief

CC[C@@H]1C(=O)OC[C@@H]1Cc1cncn1C [pilocarpine, (3S,4R)-3-ethyl-4-((1-methyl-1H-imidazol-5-yl)methyl)dihydrofuran-2(3H)-one]
vaginal secretions ([1]; Case Study 2, patient two, intra-vaginal 2.5 mg daily): partial response | vaginal secretions ([1]; Case Study 2, patient two, intra-vaginal 5 mg daily): improved greatly | vaginal secretions ([1]; Case Study 2, patient two, intra-vaginal 7.5 mg daily): improved greatly | improvement in vaginal symptoms [1, 9]: stunning | vaginal dryness [1, 10]: improved | vaginal dryness [1, 11]: reduction | results of intermittent dosing ([1]; Case Study 4, patient five, oral, taken intermittently): satisfactory results | vaginal dryness [1, 12]: no more vaginal dryness | vaginal dryness [1, 13]: improvement | vaginal secretions ([1]; Case Study 7, patient four, 5 mg directly to the vagina nightly, after the first week): an increase in vaginal secretions | vaginal secretions ([1]; Case Study 7, patient four, 10 mg directly to the vagina nightly): increased more significantly | vaginal dryness [1, 14]: reduction | pelvic pain [2, 14]: reduction | systemic symptoms ([3]; Case Study 2, patient two, intra-vaginal): no systemic symptoms | side effects [3, 10]: excess sweating and nausea | tolerability ([3]; Case Study 5, patient one, oral 5 mg twice a day): tolerated | intercourse [4, 9]: could enjoy intercourse for the first time in many months | painful intercourse [4, 13]: improvement | symptoms associated with urinary tract infections [5, 11]: reduction | urinary tract infections [5, 12]: far fewer | symptoms associated with urinary tract infections [5, 13]: improvement | vaginal yeast infections [6]: far fewer
